Among the test systems are IGROV1 ovarian; OVCAR-8 ovarian; HOP-62 NSCLC; HCT-15 colon; UACC-257 melanoma; CAKI-1 renal; HT29 colon; SF-539 CNS; SN12C renal.
Common to all, as to test: growth of human tumour cells (NCI), 48 h

Experimental findings from PubChem BioAssay (NCI) are described below.

Several values for one entry are separate records, joined by “and”; a condition that tells them apart may be missing. Identical values can stand only once.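 96-well plates; 48 h exposure; 5 concentrations. Endpoints by linear interpolation between flanking doses. Not reached: highest tested concentration assigned. At the GI50, growth is halved. At the TGI there is no net growth.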 Some results are limits rather than exact numbers.

As to `CCOC(=O)/C(=C/c1cccc(OC)c1)N(CC)CC`, the TGI with IGROV1 ovarian, in the test with OVCAR-8 ovarian, in the test with HOP-62 NSCLC, with HCT-15 colon, in the test on UACC-257 melanoma and in the test with CAKI-1 renal was above 100 µM throughout. The TGI in the test with HT29 colon and in the test with SF-539 CNS was above 100 µM each time.

As for `CC(C)c1ccccc1NC(=O)/C(Cl)=C1/Sc2ccccc2NC1=O`, the TGI in the test on SN12C renal, with IGROV1 ovarian, in the test on OVCAR-8 ovarian, in the test on HOP-62 NSCLC, in the test with HCT-15 colon and with CAKI-1 renal was above 100 µM in each case. Moreover, the TGI in the test on SF-539 CNS amounted to 57.7 µM.

As to `CCOC(=O)c1ccc(N[C@@H]2c3cc4c(cc3C(C3=CC(=O)C(=O)C(OC)=C3)[C@H]3C(=O)OCC32)OCO4)cc1` (stereo partly specified), the TGI was above 21.1 µM in the test with SN12C renal; 28.5 µM with IGROV1 ovarian; 15.9 µM in the test with OVCAR-8 ovarian; 1.66 µM with HOP-62 NSCLC; 7.82 µM with HCT-15 colon; above 82.6 µM in the test with UACC-257 melanoma. Further, the results for the TGI in the test on CAKI-1 renal, with HT29 colon and with SF-539 CNS were 11.5 µM, 18.2 µM and 4.56 µM, respectively.

With `COc1ccc(Nc2nc3ccccc3nc2-c2cccs2)cc1`, the TGI with SN12C renal, in the test with IGROV1 ovarian, in the test with OVCAR-8 ovarian, in the test on HOP-62 NSCLC, in the test with HCT-15 colon and with UACC-257 melanoma was above 100 µM throughout. Besides, the TGI in the test on CAKI-1 renal and in the test with SF-539 CNS was above 100 µM each time.

With `CC1(c2ccccc2)CC(c2ccccc2)=NO1` (stereo unspecified), the TGI with SN12C renal, with IGROV1 ovarian, in the test with OVCAR-8 ovarian, in the test with HOP-62 NSCLC, in the test with HCT-15 colon and in the test on UACC-257 melanoma was above 100 µM in each case. In addition, the TGI in the test with CAKI-1 renal, with HT29 colon and in the test with SF-539 CNS was above 100 µM each time.

Regarding `CC1(Cc2ccccc2)NC(=S)NC1=O` (stereo unspecified), the TGI in the test on SN12C renal, with OVCAR-8 ovarian, in the test with HOP-62 NSCLC, with UACC-257 melanoma, in the test with CAKI-1 renal and in the test with HT29 colon was above 100 µM throughout. This molecule returned a TGI with SF-539 CNS above 100 µM.

With `Cc1ccc2nc3c(Cl)c(C)c(=O)cc-3sc2c1`, the GI50 in the test on SN12C renal was 69 µM; in the test with IGROV1 ovarian, above 100 µM; in the test on HOP-62 NSCLC, 47.8 µM; with HCT-15 colon, 34.3 µM; with UACC-257 melanoma it was 78.4 µM; in the test on CAKI-1 renal, above 100 µM. Besides, the results for the GI50 in the test on HT29 colon and with SF-539 CNS were above 100 µM and 50.9 µM, respectively. The TGI in the test with SN12C renal, in the test with IGROV1 ovarian, in the test with OVCAR-8 ovarian, in the test on HOP-62 NSCLC, in the test with HCT-15 colon and in the test with UACC-257 melanoma was above 100 µM throughout. Moreover, the TGI in the test on CAKI-1 renal, in the test on HT29 colon and with SF-539 CNS was above 100 µM in each case.

Take `O=c1c(Cl)c(Cl)cnn1CCc1ccncc1`: the TGI amounted to 33.6 µM with SN12C renal; 33.8 µM in the test on IGROV1 ovarian; 43.1 µM with OVCAR-8 ovarian; 33.9 µM in the test with HOP-62 NSCLC; 31.3 µM with HCT-15 colon; 34.1 µM with UACC-257 melanoma. Besides, the figures for the TGI with CAKI-1 renal, in the test with HT29 colon and in the test on SF-539 CNS were 3.99 µM, 31.6 µM and 43.4 µM, respectively.

On to `CSc1c(C)c(C)nn1-c1ccccc1`, for which the TGI in the test with SN12C renal, in the test with IGROV1 ovarian, with OVCAR-8 ovarian, in the test on HCT-15 colon, with UACC-257 melanoma and with CAKI-1 renal was above 100 µM in each case. Besides, the TGI with HT29 colon and in the test with SF-539 CNS was above 100 µM throughout.

In the case of `CC/C(=N\NS(=O)(=O)c1ccccc1)c1ccccc1`, the TGI in the test on SN12C renal, in the test on IGROV1 ovarian, in the test with OVCAR-8 ovarian, with HOP-62 NSCLC, in the test with HCT-15 colon and in the test on UACC-257 melanoma was above 100 µM in each case. The TGI with CAKI-1 renal, with HT29 colon and in the test on SF-539 CNS was above 100 µM throughout.

Consider `C[n+]1c2ccccc2cc2c(CNC(CCCN=C(N)N)C(=O)O)cccc21` (stereo unspecified), for which the TGI in the test with SN12C renal was 2.18 µM and 2.99 µM; in the test on IGROV1 ovarian, 19.1 µM; with OVCAR-8 ovarian, 5.11 µM and 7.74 µM; in the test on HOP-62 NSCLC, 6.88 µM and 22 µM; with HCT-15 colon, 1.44 µM and 2.52 µM; in the test on UACC-257 melanoma, 3.9 µM. For the same molecule, the TGI in the test on CAKI-1 renal was 2.07 µM; in the test with HT29 colon it was 1.14 µM and 5.85 µM; in the test on SF-539 CNS it was 2.66 µM and 2.91 µM. Moreover, the GI50 in the test on IGROV1 ovarian is 4.09 µM; with OVCAR-8 ovarian, 2.42 µM; with HOP-62 NSCLC, 9.22 µM; with HCT-15 colon, 0.551 µM; with UACC-257 melanoma, 1.98 µM; in the test on HT29 colon, 0.339 µM.

As to `CCN(CC)CC(=O)N1CCc2c([nH]c3ccccc23)C1c1cccnc1` (stereo unspecified), the TGI with SN12C renal, with IGROV1 ovarian, with OVCAR-8 ovarian, with HOP-62 NSCLC, in the test on HCT-15 colon and with UACC-257 melanoma was above 100 µM in each case. Moreover, the TGI in the test on CAKI-1 renal, in the test with HT29 colon and with SF-539 CNS was above 100 µM in each case.

`Cl[Si]1(Cl)Oc2ccccc2O[Si](Cl)(Cl)Oc2ccccc2O1`: the TGI with SN12C renal was above 100 µM; in the test with IGROV1 ovarian it was above 100 µM; in the test on OVCAR-8 ovarian, above 100 µM; with HOP-62 NSCLC, above 100 µM; in the test with HCT-15 colon, above 100 µM; in the test on CAKI-1 renal, 97.5 µM. In addition, the TGI stood at 70.9 µM in the test with HT29 colon and 97.9 µM with SF-539 CNS.

With `O=C1C2=C(c3ccccc31)C(c1ccccc1Cl)N1C(=O)CCSC1=N2` (stereo unspecified), the TGI in the test on SN12C renal, in the test on IGROV1 ovarian, in the test with OVCAR-8 ovarian, with HOP-62 NSCLC, in the test with HCT-15 colon and with UACC-257 melanoma was above 100 µM each time. For the same molecule, the TGI with CAKI-1 renal, with HT29 colon and with SF-539 CNS was above 100 µM each time.

Consider `Cc1cc(N(CCC#N)CCC#N)ccc1/C=C1N=C(/C=C/c2ccccc2)OC(=O)N\1`, for which the TGI in the test on SN12C renal, in the test with IGROV1 ovarian, with OVCAR-8 ovarian, in the test with HOP-62 NSCLC, in the test on HCT-15 colon and in the test with UACC-257 melanoma was above 100 µM each time. For the same molecule, the TGI in the test with CAKI-1 renal, in the test with HT29 colon and in the test on SF-539 CNS was above 100 µM each time.
